The source of these data is US10442773B2, “Amorphous letermovir and solid pharmaceutical formulations thereof for oral administration” (AICURIS ANTI-INFECTIVE CURES GMBH, priority 2013, dated 2019).

Values joined by “and” are separate entries in the source; they are usually repeats but may differ in a detail not shown here. Equal entries are not always repeated.

The nature of one series: BET specific surface area analysis. Format: physicochemical. The settings on record: further BET measurement accompanying the particle size analysis (Table 23). As for the experimental part: BET specific surface area analysis was conducted on various batches of precipitated amorphous Letermovir. The same was done on a batch of Letermovir (named BXR3GBL) produced according to Example 11 of WO 2006/133822. The results of the analysis are shown below in Table 22: The particular BET method is characterized by the following parameter: Principle: Nitrogen adsorption at 77 K; method according to Brunauer, Emmett and Teller Method: volumetric method (method II) according to USP <846> Instrument: Tristar 3000/VacPrep 061 (Micromeritics) Sample mass: approximately 1.5-2.5 g Sample preparation: degassing for 2 h at 40° C. under vacuum (final vacuum <2.7 Pa) Pressure range p/p0: 0.05-0.15 (3 data points).
For `COc1cccc(N2CCN(C3=Nc4c(F)cccc4[C@H](CC(=O)O)N3c3cc(C(F)(F)F)ccc3OC)CC2)c1` [Batch 1300735], the “Specific Surface Area (SSA), m^2/g” value stood at 2.18 m^2/g. Same read-out and setting: for `COc1cccc(N2CCN(C3=Nc4c(F)cccc4[C@H](CC(=O)O)N3c3cc(C(F)(F)F)ccc3OC)CC2)c1` [Batch 1300750] the value was 2.1 m^2/g; for `COc1cccc(N2CCN(C3=Nc4c(F)cccc4[C@H](CC(=O)O)N3c3cc(C(F)(F)F)ccc3OC)CC2)c1` [Batch BXR3GBL, reference compound], 1.55 m^2/g.

The same series, now with this note: isolated API.
On to `COc1cccc(N2CCN(C3=Nc4c(F)cccc4[C@H](CC(=O)O)N3c3cc(C(F)(F)F)ccc3OC)CC2)c1` [precipitated Letermovir, (S)-{8-fluoro-2-[4-(3-methoxyphenyl)piperazin-1-yl]-3-(2-methoxy-5-trifluormethylphenyl)-3,4-dihydroquinazolin-4-yl}acetic acid], for which the specific surface area is given as 1.2-2 m^2/g. Regarding `COc1cccc(N2CCN(C3=Nc4c(F)cccc4[C@H](CC(=O)O)N3c3cc(C(F)(F)F)ccc3OC)CC2)c1` [roller dried Letermovir], the specific surface area is below 1 m^2/g.

The series is the same for the next values; noted with them: nitrogen adsorption at 77 K.
Turning to `COc1cccc(N2CCN(C3=Nc4c(F)cccc4[C@H](CC(=O)O)N3c3cc(C(F)(F)F)ccc3OC)CC2)c1` [Batch 40474375], the “Specific Surface Area (SSA), m^2/g; BET value on average” value (shortened to “Specific Surface Area … on average”) came to 1.46 m^2/g. The same measure, in the same setting: for `COc1cccc(N2CCN(C3=Nc4c(F)cccc4[C@H](CC(=O)O)N3c3cc(C(F)(F)F)ccc3OC)CC2)c1` [Batch 40474463] the value was 1.23 m^2/g; for `COc1cccc(N2CCN(C3=Nc4c(F)cccc4[C@H](CC(=O)O)N3c3cc(C(F)(F)F)ccc3OC)CC2)c1` [Batch 40475297], 1.25 m^2/g. On the same count and under the same terms, for `COc1cccc(N2CCN(C3=Nc4c(F)cccc4[C@H](CC(=O)O)N3c3cc(C(F)(F)F)ccc3OC)CC2)c1` [Batch 40479189] the value was 1.26 m^2/g; for `COc1cccc(N2CCN(C3=Nc4c(F)cccc4[C@H](CC(=O)O)N3c3cc(C(F)(F)F)ccc3OC)CC2)c1` [Batch 40479198], 2.09 m^2/g; for `COc1cccc(N2CCN(C3=Nc4c(F)cccc4[C@H](CC(=O)O)N3c3cc(C(F)(F)F)ccc3OC)CC2)c1` [Batch 40479200], 1.30 m^2/g. Still for that read-out and setting: for `COc1cccc(N2CCN(C3=Nc4c(F)cccc4[C@H](CC(=O)O)N3c3cc(C(F)(F)F)ccc3OC)CC2)c1` [Batch 40479201] the value was 1.97 m^2/g. For `COc1cccc(N2CCN(C3=Nc4c(F)cccc4[C@H](CC(=O)O)N3c3cc(C(F)(F)F)ccc3OC)CC2)c1` [Batch 40479202], the “Specific Surface Area … on average” value amounted to 1.69 m^2/g. On to `COc1cccc(N2CCN(C3=Nc4c(F)cccc4[C@H](CC(=O)O)N3c3cc(C(F)(F)F)ccc3OC)CC2)c1` [Batch 40479248], for which the “Specific Surface Area … on average” value was 1.45 m^2/g. Take `COc1cccc(N2CCN(C3=Nc4c(F)cccc4[C@H](CC(=O)O)N3c3cc(C(F)(F)F)ccc3OC)CC2)c1` [Batch 40479326]: the “Specific Surface Area … on average” value is reported as 1.76 m^2/g. In the case of `COc1cccc(N2CCN(C3=Nc4c(F)cccc4[C@H](CC(=O)O)N3c3cc(C(F)(F)F)ccc3OC)CC2)c1` [Batch 40479434], the “Specific Surface Area … on average” value was found to be 1.48 m^2/g. Same read-out and setting: for `COc1cccc(N2CCN(C3=Nc4c(F)cccc4[C@H](CC(=O)O)N3c3cc(C(F)(F)F)ccc3OC)CC2)c1` [Batch 40479463] the value was 1.45 m^2/g; for `COc1cccc(N2CCN(C3=Nc4c(F)cccc4[C@H](CC(=O)O)N3c3cc(C(F)(F)F)ccc3OC)CC2)c1` [Batch 40483515], 1.03 m^2/g. Regarding `COc1cccc(N2CCN(C3=Nc4c(F)cccc4[C@H](CC(=O)O)N3c3cc(C(F)(F)F)ccc3OC)CC2)c1` [Batch 40483516], the “Specific Surface Area … on average” value was 1.28 m^2/g.

With `COc1cccc(N2CCN(C3=Nc4c(F)cccc4[C@H](CC(=O)O)N3c3cc(C(F)(F)F)ccc3OC)CC2)c1` [Batch 40483517], the “Specific Surface Area … on average” value was 1.87 m^2/g and 1.83 m^2/g. On the same count and under the same terms, for `COc1cccc(N2CCN(C3=Nc4c(F)cccc4[C@H](CC(=O)O)N3c3cc(C(F)(F)F)ccc3OC)CC2)c1` [Batch BXR3GBL, reference compound] the value was 0.64 m^2/g.

The nature of a further series: Laser diffraction particle size distribution analysis (Mastersizer 2000). It counts as physicochemical. Conditions: Mastersizer 2000, dry dispersion, average of four analyses. As for the experimental part:
Laser diffraction particle size distribution analysis was conducted on two batches of precipitated amorphous Letermovir of the invention and on a batch of amorphous Letermovir (referred to as BXR3GBL) produced according to Example 11 of WO 2006/133822 while using laser diffraction technique of the Mastersizer 2000 (Malvern Instruments). The results of the analysis are presented in FIG. 9(a-c) in the form of three particle size distribution charts and the numeric part of the results is shown below in Table 23: The particular PSD analysis method is characterized by the following parameter: Device: Mastersizer 2000 with dry dispersion Modus: Fraunhofer; weight-in quantity: 0.3-0.4 g Measurement time: 20 seconds Background time: 6 seconds Obscuration limits: 0.5 to 6% Sample tray: micro volume; small sieve with balls Feed rate: 45-55% Dispersive pressure: 2.5 bar Four independent analyses were performed and the results were averaged.
Regarding `COc1cccc(N2CCN(C3=Nc4c(F)cccc4[C@H](CC(=O)O)N3c3cc(C(F)(F)F)ccc3OC)CC2)c1` [Batch 1300735], the “Particle Size Median Value d(0.5), μm” value stood at 8.880 μm.

Turning to `COc1cccc(N2CCN(C3=Nc4c(F)cccc4[C@H](CC(=O)O)N3c3cc(C(F)(F)F)ccc3OC)CC2)c1` [Batch 1300750], the “Particle Size Median Value d(0.5), μm” value was determined as 9.383 μm. The same measure, in the same setting: for `COc1cccc(N2CCN(C3=Nc4c(F)cccc4[C@H](CC(=O)O)N3c3cc(C(F)(F)F)ccc3OC)CC2)c1` [Batch BXR3GBL, reference compound] the value was 21.607 μm.
